The values that follow come from patent US20240293400A1, “NOVEL AZAINDOLE DERIVATIVES AS ANTIVIRAL AGENTS” (Centre National de la Recherche Scientifique, priority 2021, published 2024).

For assay [1], the system named is DENV subtype 2 strain (DENV2). Put plainly: Antiviral activity against the dengue virus in HeLa cells. Format: cell-based. As to conditions: 72 h, DENV2, 3 days.
Assay [2] concerns CHIKV virus, LR-OPY1 strain. Put plainly: Antiviral activity against the Chikungunya virus in HeLa cells. The class given is cell-based. The conditions noted are these: 24 h.
Another assay relates to ZIKV BeH8 strain. The conditions noted are these: cited from earlier work.

Take `Nc1nc(Nc2ccc3c(c2)CC[C@@H](N2CCCC2)CC3)nn1-c1cc2c(nn1)-c1ccccc1CCC2` [R428/Bemcentinib, Bemcentinib]: the IC50 in assay [1] stood at 488 nM; in assay [2], 239 nM. The “concentrations of efficacy against the ZIKV virus described in the literature” value with ZIKV BeH8 strain was 1 to 3 µM.
